The text below walks through data of BigSolDB 2.1.

As to `COc1ccc(C(=O)/C=C/c2ccc(-c3cccc([N+](=O)[O-])c3)o2)cc1`, the solubility (mole fraction) turned out to be 0.00732 (in 1,4-dioxane, 298.15 K); 0.00733 (in 1,4-dioxane, 303.15 K); 0.00737 (in 1,4-dioxane, 308.15 K); 0.00742 (in 1,4-dioxane, 313.15 K); 0.00744 (in 1,4-dioxane, 318.15 K); 0.0112 (in DMF, 298.15 K). In addition, the solubility (mole fraction) was 0.0112 (in DMF, 303.15 K); 0.0113 (in DMF, 308.15 K); 0.0113 (in DMF, 313.15 K); 0.0114 (in DMF, 318.15 K).

Take `Nc1ccc(C(=O)/C=C/c2ccc(-c3cccc([N+](=O)[O-])c3)o2)cc1`: the solubility (mole fraction) reads like this: (in 1,4-dioxane, 298.15 K) 0.00245; (in 1,4-dioxane, 303.15 K) 0.00248; (in 1,4-dioxane, 308.15 K) 0.0025; (in 1,4-dioxane, 313.15 K) 0.00252; (in 1,4-dioxane, 318.15 K) 0.00255; (in DMF, 298.15 K) 0.00264. The solubility (mole fraction) by setting is: (in DMF, 303.15 K) 0.00264; (in DMF, 308.15 K) 0.00264; (in DMF, 313.15 K) 0.00264; (in DMF, 318.15 K) 0.00264.

With `O=C(/C=C/c1ccc(-c2cccc([N+](=O)[O-])c2)o1)CO`, the solubility (mole fraction) is, setting by setting: (in 1,4-dioxane, 298.15 K) 0.00705; (in 1,4-dioxane, 303.15 K) 0.00707; (in 1,4-dioxane, 308.15 K) 0.0071; (in 1,4-dioxane, 313.15 K) 0.00711; (in 1,4-dioxane, 318.15 K) 0.00714; (in DMF, 298.15 K) 0.0094. Moreover, the solubility (mole fraction) runs as follows: (in DMF, 303.15 K) 0.00945; (in DMF, 308.15 K) 0.0095; (in DMF, 313.15 K) 0.0095; (in DMF, 318.15 K) 0.00959.

Consider `O=C(/C=C/c1ccc(-c2cccc([N+](=O)[O-])c2)o1)c1ccc2ccc(=O)oc2c1`, for which the solubility (mole fraction) is, setting by setting: (in 1,4-dioxane, 298.15 K) 0.00617; (in 1,4-dioxane, 303.15 K) 0.00623; (in 1,4-dioxane, 308.15 K) 0.00622; (in 1,4-dioxane, 313.15 K) 0.00624; (in 1,4-dioxane, 318.15 K) 0.00628; (in DMF, 298.15 K) 0.00696. The compound also yielded a solubility (mole fraction) (in DMF, 303.15 K) of 0.007; a solubility (mole fraction) (in DMF, 308.15 K) of 0.0071; a solubility (mole fraction) (in DMF, 313.15 K) of 0.0072; a solubility (mole fraction) (in DMF, 318.15 K) of 0.00721.

Consider `O=C(/C=C/c1ccc(-c2cccc([N+](=O)[O-])c2)o1)c1ccc(Br)cc1`, for which the solubility (mole fraction) (in 1,4-dioxane, 298.15 K) is 0.00489; the solubility (mole fraction) (in 1,4-dioxane, 303.15 K) was 0.00491; the solubility (mole fraction) (in 1,4-dioxane, 308.15 K) was 0.00495; the solubility (mole fraction) (in 1,4-dioxane, 313.15 K) is 0.00501; the solubility (mole fraction) (in 1,4-dioxane, 318.15 K) worked out at 0.00501; the solubility (mole fraction) (in DMF, 298.15 K) was determined as 0.00705. The compound also yielded a solubility (mole fraction) (in DMF, 303.15 K) of 0.0071; a solubility (mole fraction) (in DMF, 308.15 K) of 0.00714; a solubility (mole fraction) (in DMF, 313.15 K) of 0.00722; a solubility (mole fraction) (in DMF, 318.15 K) of 0.00726.

For the compound `O=C(/C=C/c1ccc(-c2cccc([N+](=O)[O-])c2)o1)c1ccc(O)cc1`, the solubility (mole fraction) by setting is: (in 1,4-dioxane, 298.15 K) 0.00573; (in 1,4-dioxane, 303.15 K) 0.0058; (in 1,4-dioxane, 308.15 K) 0.00581; (in 1,4-dioxane, 313.15 K) 0.00591; (in 1,4-dioxane, 318.15 K) 0.00592; (in DMF, 298.15 K) 0.00665. For the same compound, the solubility (mole fraction) is 0.0067 (in DMF, 303.15 K); 0.00675 (in DMF, 308.15 K); 0.0068 (in DMF, 313.15 K); 0.00692 (in DMF, 318.15 K).

Take `O=C(/C=C/c1ccc(-c2cccc([N+](=O)[O-])c2)o1)c1ccc(Cl)cc1`: the solubility (mole fraction) came to 0.00271 (in 1,4-dioxane, 298.15 K); 0.00272 (in 1,4-dioxane, 303.15 K); 0.00277 (in 1,4-dioxane, 308.15 K); 0.00282 (in 1,4-dioxane, 313.15 K); 0.00284 (in 1,4-dioxane, 318.15 K); 0.0045 (in DMF, 298.15 K). This compound returned a solubility (mole fraction) (in DMF, 303.15 K) of 0.0046; a solubility (mole fraction) (in DMF, 308.15 K) of 0.00468; a solubility (mole fraction) (in DMF, 313.15 K) of 0.0047; a solubility (mole fraction) (in DMF, 318.15 K) of 0.0048.

`O=C(/C=C/c1ccc(-c2cccc([N+](=O)[O-])c2)o1)c1ccc([N+](=O)[O-])cc1`: the solubility (mole fraction) (in 1,4-dioxane, 298.15 K) came out at 0.00229; the solubility (mole fraction) (in 1,4-dioxane, 303.15 K) was 0.00232; the solubility (mole fraction) (in 1,4-dioxane, 308.15 K) turned out to be 0.00239; the solubility (mole fraction) (in 1,4-dioxane, 313.15 K) came to 0.00241; the solubility (mole fraction) (in 1,4-dioxane, 318.15 K) amounted to 0.00245; the solubility (mole fraction) (in DMF, 298.15 K) worked out at 0.00237. In addition, the solubility (mole fraction) (in DMF, 303.15 K) came to 0.0024; the solubility (mole fraction) (in DMF, 308.15 K) worked out at 0.00244; the solubility (mole fraction) (in DMF, 313.15 K) came out at 0.00245; the solubility (mole fraction) (in DMF, 318.15 K) worked out at 0.00248.

`O=C(/C=C/c1ccc(-c2cccc([N+](=O)[O-])c2)o1)c1ccccc1`: the solubility (mole fraction) by setting is: (in 1,4-dioxane, 298.15 K) 0.00553; (in 1,4-dioxane, 303.15 K) 0.0056; (in 1,4-dioxane, 308.15 K) 0.00565; (in 1,4-dioxane, 313.15 K) 0.00571; (in 1,4-dioxane, 318.15 K) 0.00573; (in DMF, 298.15 K) 0.00983. Also, the solubility (mole fraction) turned out to be 0.0099 (in DMF, 303.15 K); 0.00998 (in DMF, 308.15 K); 0.0101 (in DMF, 313.15 K); 0.0101 (in DMF, 318.15 K).

`O=C(/C=C/c1ccc(-c2cccc([N+](=O)[O-])c2)o1)c1cccc([N+](=O)[O-])c1` gave a solubility (mole fraction) (in 1,4-dioxane, 298.15 K) of 0.00596; a solubility (mole fraction) (in 1,4-dioxane, 303.15 K) of 0.00601; a solubility (mole fraction) (in 1,4-dioxane, 308.15 K) of 0.00602; a solubility (mole fraction) (in 1,4-dioxane, 313.15 K) of 0.00605; a solubility (mole fraction) (in 1,4-dioxane, 318.15 K) of 0.00608; a solubility (mole fraction) (in DMF, 298.15 K) of 0.00604. In addition, the solubility (mole fraction) came out at 0.0061 (in DMF, 303.15 K); 0.00614 (in DMF, 308.15 K); 0.0062 (in DMF, 313.15 K); 0.0062 (in DMF, 318.15 K).
